Patent US6140487A (Kabushiki Kaisha Hayashibara Seibutsu Kagaku Kenkyujo, priority 1996, dated 2000)

Assays:
kojibiose phosphorylase [1] = target: T1, kojibiose phosphorylase (Thermoanaerobacter brockii, UniProt Q8L163); assay: Specificity to acceptor in glucosyl-transferred saccharide-forming reaction by kojibiose phosphorylase (TLC); type: biochemical, Thermoanaerobium brockii, ATCC 35047; set-up: made in house; host or cells: Thermoanaerobium brockii, ATCC 35047 (natural producer, not recombinant; cell lysate purified by column chromatography); details: for Transfer of glucosyl group from β-D-glucose-1-phosphoric acid to the acceptor (in words): summary of Table 2
T1 sequence (Q8L163 1-775): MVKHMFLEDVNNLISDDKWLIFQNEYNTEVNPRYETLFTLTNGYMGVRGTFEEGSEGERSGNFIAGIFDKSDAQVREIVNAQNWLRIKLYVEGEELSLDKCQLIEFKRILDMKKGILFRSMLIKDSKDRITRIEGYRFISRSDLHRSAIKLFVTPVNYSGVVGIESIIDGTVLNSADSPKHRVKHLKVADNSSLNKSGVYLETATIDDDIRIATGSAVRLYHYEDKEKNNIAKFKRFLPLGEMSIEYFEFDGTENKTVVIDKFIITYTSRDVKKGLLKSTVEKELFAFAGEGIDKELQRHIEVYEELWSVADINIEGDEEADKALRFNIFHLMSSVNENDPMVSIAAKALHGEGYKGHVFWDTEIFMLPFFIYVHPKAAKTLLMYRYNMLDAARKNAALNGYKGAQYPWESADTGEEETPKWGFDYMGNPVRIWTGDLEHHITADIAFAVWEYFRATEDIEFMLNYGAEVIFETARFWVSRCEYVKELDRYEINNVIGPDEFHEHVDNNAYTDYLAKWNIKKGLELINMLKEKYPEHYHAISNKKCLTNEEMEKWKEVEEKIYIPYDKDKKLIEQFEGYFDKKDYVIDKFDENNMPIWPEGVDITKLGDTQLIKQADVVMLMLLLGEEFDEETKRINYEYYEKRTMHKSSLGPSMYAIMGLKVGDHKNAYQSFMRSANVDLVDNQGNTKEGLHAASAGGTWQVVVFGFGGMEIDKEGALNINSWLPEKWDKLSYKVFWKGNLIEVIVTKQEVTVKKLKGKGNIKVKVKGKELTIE
Source text: The concentrations of the acceptors and the saccharide donors were adjusted to one w/v %. Similarly as in Experiment 5, the pre-reaction solutions and the post reaction mixtures were subjected to TLC, followed by coloring the plates. […] By macroscopically observing the coloration degree of the newly detected spots, the yield of the transferred saccharides was relatively evaluated.

7week-old dd-strain mice = assay: Acute toxicity test, oral administration; type: in vivo; details: powdery product rich in the saccharide, maximum dose 50 g/kg mouse by weight
Procedure: Acute toxicity test of the powdery products rich in glucosylsorbose, kojitriose, kojibiosylglucoside, and kojibiosylfructoside in Experiments 8-12 were tested in 7week-old dd-strain mice by administering orally. As a result, no mouse died even when administered with their maximum doses, i.e., 50 g/kg mouse by weight.

kojibiose phosphorylase [2] = target: T1, kojibiose phosphorylase; assay: Substrate specificity for saccharide-hydrolyzing reaction by kojibiose phosphorylase (TLC); details: summary of Table 1
Source text: The saccharide concentration of each reaction solution was 2 w/v %. Pre-reaction solutions and post-reaction mixtures were subjected to thin layer chromatography (hereinafter abbreviated as "TLC") using "[sequence] 60 (20×20 cm)", an aluminum plate for TLC commercialized by Merck & Co., Inc., Rahway, USA. Samples were developed once at ambient temperature on the plate using 1-butanol/pyridine/water (=7:3:1 by volume) as a developing solvent system, and the plate was sprayed with 20 v/v % sulfuric acid/methanol solution, and heated at 110° C. for about 10 min for coloration. Comparing spots of the solutions and mixtures detected on the plates, it was checked whether the enzyme acted on the saccharides.

| Structure (SMILES) | Transfer of glucosyl group from β-D-glucose-1-phosphoric acid to the acceptor (in words) (kojibiose phosphorylase [1]) | further results |
| --- | --- | --- |
| O=P(O)(O)O[C@H]1O[C@H](CO)[C@@H](O)[C@H](O)[C@H]1O [α-D-glucose-1-phosphoric acid] | – | Formation of glucosyl-transferred saccharide with the substance as saccharide donor (kojibiose phosphorylase [1]; used in place of β-D-glucose-1-phosphoric acid): No glucosyl-transferred saccharide was formed |
| OC[C@H]1O[C@H](O[C@H]2[C@@H](O[C@H]3C(O)O[C@H](CO)[C@@H](O)[C@@H]3O)O[C@H](CO)[C@@H](O)[C@@H]2O)[C@H](O)[C@@H](O)[C@@H]1O (stereo partly drawn) [kojitriose, α-D-glucosyl-(1→2)-α-D-glucosyl-(1→2)-D-glucose] | – | Acute toxicity: death of mice (7week-old dd-strain mice): no mouse died |
| OC[C@H]1O[C@H](O[C@H]2C(O)O[C@H](CO)[C@@H](O)[C@@H]2O)[C@H](O)[C@@H](O)[C@@H]1O (stereo partly drawn) [Kojibiose] | effectively transferred glucosyl group | Action of kojibiose phosphorylase on the saccharide (substrate specificity, in words) (kojibiose phosphorylase [2]): acted on it |
| OC[C@H]1O[C@H](O[C@H]2[C@H](O)[C@@H](O)[C@H](O)O[C@@H]2CO)[C@H](O)[C@@H](O)[C@@H]1O [Maltose] | effectively transferred glucosyl group | – |
| OC[C@H]1O[C@H](O[C@H]2[C@H](O)[C@@H](O)[C@@H](O[C@H]3[C@H](O)[C@@H](O)[C@@H](O[C@H]4[C@H](O)[C@@H](O)[C@@H](O[C@H]5[C@H](O)[C@@H](O)C(O)O[C@@H]5CO)O[C@@H]4CO)O[C@@H]3CO)O[C@@H]2CO)[C@H](O)[C@@H](O)[C@@H]1O (stereo partly drawn) [Maltopentaose] | effectively transferred glucosyl group | – |
| OC[C@H]1O[C@H](O[C@H]2O[C@H](CO)[C@@H](O)[C@H](O)[C@H]2O)[C@H](O)[C@@H](O)[C@@H]1O [Trehalose] | effectively transferred glucosyl group | – |
| OC[C@H]1O[C@@](CO)(O[C@H]2O[C@H](CO)[C@@H](O)[C@H](O)[C@H]2O[C@H]2O[C@H](CO)[C@@H](O)[C@H](O)[C@H]2O)[C@@H](O)[C@@H]1O [kojibiosylfructoside, α-D-glucosyl-(1→2)-α-D-glucosyl-(1→2)-β-D-fructoside] | – | Acute toxicity: death of mice (7week-old dd-strain mice): no mouse died |
| OC[C@H]1O[C@H](O[C@H]2[C@H](O)[C@@H](O)[C@@H](O[C@H]3[C@H](O)[C@@H](O)C(O)O[C@@H]3CO)O[C@@H]2CO)[C@H](O)[C@@H](O)[C@@H]1O (stereo partly drawn) [Maltotriose] | effectively transferred glucosyl group | – |
| OC[C@H]1O[C@H](O[C@H]2O[C@H](CO)[C@@H](O)[C@H](O)[C@H]2O[C@H]2O[C@H](CO)[C@@H](O)[C@H](O)[C@H]2O)[C@H](O)[C@@H](O)[C@@H]1O [kojibiosylglucoside, α-D-glucosyl-(1→2)-α-D-glucosyl-(1,1)-α-D-glucoside] | – | Acute toxicity: death of mice (7week-old dd-strain mice): no mouse died |
| OC[C@H]1O[C@H](O[C@H]2[C@H](O)[C@@H](O)[C@@H](O[C@H]3[C@H](O)[C@@H](O)[C@@H](O[C@H]4[C@H](O)[C@@H](O)C(O)O[C@@H]4CO)O[C@@H]3CO)O[C@@H]2CO)[C@H](O)[C@@H](O)[C@@H]1O (stereo partly drawn) [Maltotetraose] | effectively transferred glucosyl group | – |
| OCC1(O)OC[C@H](O)[C@@H](O)[C@@H]1O (stereo partly drawn) [L-Sorbose] | effectively transferred glucosyl group | – |
| O=C(CO)[C@@H](O)[C@H](O)[C@H](CO)O[C@H]1O[C@H](CO)[C@@H](O)[C@H](O)[C@H]1O [glucosylsorbose, α-D-glucosyl-(1→5)-L-sorbose] | – | Acute toxicity: death of mice (7week-old dd-strain mice): no mouse died |
| OC[C@H]1OC(O)[C@H](O)[C@@H](O)[C@@H]1O (stereo partly drawn) [D-Glucose] | effectively transferred glucosyl group | – |
| OC[C@H]1O[C@@](CO)(O[C@H]2O[C@H](CO)[C@@H](O)[C@H](O)[C@H]2O)[C@@H](O)[C@@H]1O [Sucrose] | effectively transferred glucosyl group | – |
